For orientation: IC50 means the concentration that gives 50% inhibition. Low values mean greater potency, high ones weaker potency.

The target in this experiment is Neuraminidase (Influenza A virus (strain A/Puerto Rico/8/1934 H1N1), UniProt P03468). Put plainly: Inhibition of influenza A sialidase in vitro.
Sequence of Neuraminidase (P03468 whole entry): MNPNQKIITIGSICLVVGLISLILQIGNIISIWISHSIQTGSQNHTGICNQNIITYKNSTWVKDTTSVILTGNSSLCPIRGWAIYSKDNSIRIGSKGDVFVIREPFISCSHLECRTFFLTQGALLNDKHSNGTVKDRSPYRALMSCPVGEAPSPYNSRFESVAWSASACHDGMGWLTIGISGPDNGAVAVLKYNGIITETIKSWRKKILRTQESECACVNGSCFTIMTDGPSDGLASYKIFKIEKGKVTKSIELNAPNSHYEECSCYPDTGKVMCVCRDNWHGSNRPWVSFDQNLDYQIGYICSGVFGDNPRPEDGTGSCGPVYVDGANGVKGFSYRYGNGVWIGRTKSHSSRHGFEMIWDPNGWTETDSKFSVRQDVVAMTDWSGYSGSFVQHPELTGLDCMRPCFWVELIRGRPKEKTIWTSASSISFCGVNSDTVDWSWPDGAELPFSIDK

With `[C]C(=O)[N][C][C]O[C@@H]([C@@H]1OC(C([O])=O)=[C][C@H](N=C([N])[N])[C@H]1[N]C([C])=O)[C@H]([O])[C][O]`, half-maximal inhibition (IC50) required 18.4 nM.

`[C][C][C][C][C]O[C@H]([C][C])[C@@H]1OC(C([O])=O)=[C][C@H](N=C([N])[N])[C@H]1[N]C([C])=O` came in with an IC50 of 18.8 nM.

The record behind these values is BindingDB's records for doi:10.1016/s0960-894x(02)00329-3 (Sankyo, 2002).
